Source: patent US6921775B2, “Methods for modulating brain damage” (Children's Medical Center Corporation, priority 2001, dated 2005)

Key:
[1] = system: O4+ OLs in subcortical white matter; assay: OL proliferation and maturation in vivo in pups without insult; parameters: species or system rat; conditions: 30 mg/kg topiramate or 20 mg/kg NBQX; for number of proliferating (BrdU labeled, O4+) OLs in subcortical white matter: 4 injections every 12 hours at P7 and P8, no insult, vs vehicle; for maturation of white matter (O4, O1, MBP immunohistostaining), qualitative: 4 injections every 12 hours at P7 and P8, at P9 or P11
Protocol: Litters of male Long Evans rat pups (Charles River Laboratories, Wilmington, Mass.) were raised with dams in a temperature-controlled environment with 12 hour light-dark cycles. Pups underwent carotid ligation and hypoxia at post-natal-day (P)7. They were recovered on a thermal blanket at 33-34° C. (baseline temperature for P7 rats) and returned to their dam for 48-96 hours prior to sacrifice. Treated pups were given intra-peritoneal (i.p.) injections of 0.1 cc solutions of topiramate, NBQX or vehicle every 12 hours for 48 hours at P7 and P8 for treatment, control and normal development studies.
Oligodendrocyte maturation and myelin expression were evaluated in animals treated for 48 hours with topiramate as compared with normal development. The sub-cortical white matter was evaluated by immunocytochemistry with antibodies to O4, O1 and myelin basic protein (MBP), for changes in pre-myelinating OL populations and in the pattern of MBP expression in rats sacrificed at P9, acutely after treatment. To evaluate for any permanent effect on mature myelination, the quantity of MBP at P28 in animals treated for 48 hours at P7/8 with topiramate was compared with untreated littermates by Western blot.
Histological and immunocytochemical (ICC) analysis was carried out on serial 20-30 μm coronal sections, cut by either cryostat (for pre-mounted sections) or freezing microtome (floating sections) from the anterior extent of the lateral ventricles through the posterior extent of the dorsal hippocampus. Representative sections from all experimental animals were stained with hematoxylin and eosin (HE) for routine evaluation.
For ICC evaluation, adjacent mounted sections were incubated in 5-10% normal goat serum for one hour to block non-specific binding and concurrently permeabilized in 0.1% Triton X-100. Slides were incubated with MBP antibody (SMA-99, Sternberger Monoclonals, Baltimore, Md.) at a dilution of 1:800 in PBS with 1% normal goat serum plus 0.1% Triton overnight at 4° C., followed by Oregon Green (Molecular Probes, Eugene, Oreg.) anti-mouse IgG secondary antibody for one hour at room temperature. […]
Litters were divided and pups received 4 injections, one every 12 hours for 48 hours at P7 and P8, of either vehicle (n=6), 30 mg/kg topiramate (n=7) or 20 mg/kg NBQX (n=7). […] At the completion of 48 hours the animals were sacrificed and the number of BrdU labeled, O4+ OLs present in the subcortical white matter of coronal sections (n=20/group) were counted (FIG. 5B). […] Furthermore, qualitative analysis of white matter by immunohistostaining for OL stage-specific markers O4, O1 and MBP was carried out in serial sections of the same animals evaluated above.

[2] = system: oligodendrocyte precursor cells; assay: 45Ca2+ uptake in oligodendrocyte precursor cells; format: cell-based, rat; conditions: NBQX 100 μM, topiramate 30 μM, uptake after 10 minutes; for OGD-induced Ca2+ accumulation (45Ca2+ uptake): OGD for 2 hr; for kainate-evoked Ca2+ entry (45Ca2+ uptake): kainate 300 μM
Protocol: Primary oligodendrocyte precursor cells were isolated from mixed glial cultures of the forebrains of newborn Sprague-Dawley rats using a selective detachment procedure as described in detail elsewhere (McCarthy and de Vellis, 1980; Back et al., 1998), and further purified by differential adhesion (Back et al., 1998). Precursor cells were maintained in a chemically-defined medium (CDM) supplemented with recombinant human platelet derived growth factor-AA (PDGF, 10 ng/ml) and basic fibroblast growth factor (bFGF, 10 ng/ml). The CDM was Dulbecco Modified Eagle's Medium (DMEM) containing D-glucose (25 mM), L-glutamine (4 mM), sodium pyruvate (1 mM), human apo-transferrin (50 μg/ml), bovine pancreatic insulin (5 μg/ml), sodium selenium (30 nM), hydrocortisone (10 nM), D-biotin (10 nM), and bovine serum albumin (BSA, 1 mg/ml). All chemicals were from Sigma. Precursor cells were maintained in the presence of growth factors (PDGF+bFGF) by refeeding with fresh medium every 48 hr for 7 days, to promote cell proliferation and prevent differentiation (Bogler et al., 1990). Experiments were performed with cultures maintained in CDM without the supplemental growth factors. These cultures were routinely characterized by immunochemical detection of cell-specific markers as described before (Back et al., 1998). Cultures at the beginning of experiments usually consisted of approximately 90% A2B5^+ oligodendrocyte precursors and less than 5% glial fibrillary acidic protein (GFAP)-positive astrocytes. Cells were plated on poly-DL-ornithine-coated 24-well plates for cell viability assays and on coated glass coverslips for immunocytochemistry, proliferation studies, and lineage analysis. To assay Ca^2+ influx, cultures were incubated with ^45CaCl2 (8 μCi/ml) at room temperature for 10 min, then washed with Hank's balanced salts-solution (HBSS) and lysed with 1% Triton-X 100 in HBSS. Radioactivity in the whole lysate was counted by liquid scintillation. To gain further insight into the mechanisms of the protective effect of topiramate and NBQX, kainate- or OGD-evoked calcium accumulation in oligodendrocyte precursor cells was investigated. Cultures were either not treated or given NBQX (100 μM) or topiramate (30 μM), together with ^45CaCl2 (8 μCi/ml), before adding kainate (300 μM) or after exposure to OGD for 2 hr. ^45Ca^2+ uptake was measured after 10 minutes.

| SMILES | number of proliferating (BrdU labeled, O4+) OLs in subcortical white matter [1] | maturation of white matter (O4, O1, MBP immunohistostaining), qualitative [1] | OGD-induced Ca2+ accumulation (45Ca2+ uptake) [2] | kainate-evoked Ca2+ entry (45Ca2+ uptake) [2] |
| --- | --- | --- | --- | --- |
| NS(=O)(=O)c1cccc2c1c([N+](=O)[O-])cc1nc(O)c(O)nc12 [NBQX, 2,3-Dioxo-6-nitro-1,2,3,4-tetrahydrobenzo[f]quinoxaline-7-sulphonamide] | No difference in the number of proliferating OLs was detected | No qualitative difference in maturation was seen | fully prevented | completely blocked |
| CC1(C)O[C@@H]2[C@@H](CO[C@@]3(COS(N)(=O)=O)OC(C)(C)O[C@@H]23)O1 [topiramate] | No difference in the number of proliferating OLs was detected | No qualitative difference in maturation was seen | fully prevented | partially prevented |
